The source of these data is ChEMBL document CHEMBL5346899, “PKM2/PDK1 dual-targeted shikonin derivatives restore the sensitivity of EGFR-mutated NSCLC cells to gefitinib by remodeling glucose metabolism” (Eur J Med Chem, 2023).

Calls of active or inactive are those of the source. The rule behind the calls is not given here.

Series [1] has as its system NCI-H1299. As to the kind of experiment: cells. The series is classed as functional, cell-based. To be noted: Homo sapiens, NCI-H1299, 24 h.
Description: Antiproliferative activity against human NCI-H1299 cells assessed as inhibition of cell growth incubated for 24 hrs by CCK-8 assay
In the next series the test system is A549. Briefly: cells. The series is classed as functional, cell-based. To be noted: Homo sapiens, A549, 24 h.
A further series relates to NCI-H1975. Briefly: cells. The series is classed as functional, cell-based. Conditions: Homo sapiens, NCI-H1975, 24 h.
A short description of the next series: in vitro. Conditions: human, HEK293T cells.
Another series concerns HCC827. Briefly: cells. Type of series: functional, cell-based. To be noted: Homo sapiens, HCC827, 24 h.
Series [2] relates to NCI-H1299. Briefly: Induction of apoptosis in human NCI-H1299 cells assessed as late apoptotic cells at 500 micromol/L incubated for 24 hrs by Annexin V-FITC/PI staining based analysis (reference value: 2.63%). Type of series: functional. To be noted: dose 500 µmol/L, at 500 µM.
The test system of series [3] is NCI-H1299. As to the kind of experiment: Induction of apoptosis in human NCI-H1299 cells assessed as live cells at 500 micromol/L incubated for 24 hrs in presence of ML265 by Annexin V-FITC/PI staining based analysis (reference value: 96.6%). The series is classed as functional. Conditions: dose 500 µmol/L, at 500 µM.
Series [4] concerns NCI-H1299. Briefly: Inhibition of glycolysis in human NCI-H1299 cells assessed as reduction in lactate production incubated for 1 hrs in presence of ML265 by colorimetric assay. The series is classed as functional, cell-based.
Series [5] has as its system NCI-H1299. As to the kind of experiment: Induction of apoptosis in human NCI-H1299 cells assessed as dead cells at 500 micromol/L incubated for 24 hrs by Annexin V-FITC/PI staining based analysis (reference value: 0.021%). To be noted: dose 500 µmol/L, at 500 µM. Type of series: functional.
The test system of series [6] is NCI-H1299. Briefly: Synergistic inhibition of NADPH production in human NCI-H1299 cells incubated for 2 hrs in presence of ML265 by NADP+/NADPH assay. Type of series: functional, cell-based.
Series [7] concerns NCI-H1299. Briefly: Induction of apoptosis in human NCI-H1299 cells assessed as dead cells at 500 micromol/L incubated for 24 hrs in presence of ML265 by Annexin V-FITC/PI staining based analysis (reference value: 0.021%). Type of series: functional. To be noted: dose 500 µmol/L, at 500 µM.
Series [8] relates to NCI-H1299. Briefly: Synergistic induction of oxidative phosphorylation in human NCI-H1299 cells assessed as increase in ATP production in presence of ML265 by luminescence based assay. Type of series: functional, cell-based.
Series [9] deals with NCI-H1299. Briefly: Antitumor activity against human NCI-H1299 cells xenografted in mouse assessed as pathological damage to tumor tissue administered in presence of ML265. Type of series: functional.
In series [10] the test system is NCI-H1299. As to the kind of experiment: Synergistic antiproliferative activity against human NCI-H1299 cells assessed as cell growth inhibition at 500 micromol/L incubated for 24 hrs in presence of ML265 by CCK-8 analysis. Type of series: functional, cell-based. Conditions: dose 500.0 µmol/L.
Series [11] deals with NCI-H1299. As to the kind of experiment: Induction of apoptosis in human NCI-H1299 cells assessed as live cells at 500 micromol/L incubated for 24 hrs by Annexin V-FITC/PI staining based analysis (reference value: 96.6%). Type of series: functional. Conditions: dose 500 µmol/L, at 500 µM.
In series [12] the test system is NCI-H1299. As to the kind of experiment: Induction of apoptosis in human NCI-H1299 cells assessed as late apoptotic cells at 500 micromol/L incubated for 24 hrs in presence of ML265 by Annexin V-FITC/PI staining based analysis (reference value: 2.63%). The series is classed as functional. To be noted: dose 500 µmol/L, at 500 µM.
The subject of series [13] is NCI-H1299. Briefly: Induction of apoptosis in human NCI-H1299 cells assessed as early apoptotic cells at 500 micromol/L incubated for 24 hrs in presence of ML265 by Annexin V-FITC/PI staining based analysis (reference value: 0.772%). The series is classed as functional. Conditions: dose 500 µmol/L, at 500 µM.
The test system of series [14] is NCI-H1299. Briefly: Inhibition of glycolysis in human NCI-H1299 cells assessed as reduction in glucose consumption incubated for 24 hrs in presence of ML265 by colorimetric assay. The series is classed as functional, cell-based.
Series [15] deals with NCI-H1299. As to the kind of experiment: Induction of apoptosis in human NCI-H1299 cells assessed as early apoptotic cells at 500 micromol/L incubated for 24 hrs by Annexin V-FITC/PI staining based analysis (reference value: 0.772%). The series is classed as functional. Conditions: dose 500 µmol/L, at 500 µM.

Description for A549: Antiproliferative activity against human A549 cells assessed as inhibition of cell growth incubated for 24 hrs by CCK-8 assay
Description for HCC827: Antiproliferative activity against human HCC827 cells assessed as inhibition of cell growth incubated for 24 hrs by CCK-8 assay
Description for NCI-H1975: Antiproliferative activity against human NCI-H1975 cells assessed as inhibition of cell growth incubated for 24 hrs by CCK-8 assay
Description for in vitro: Cytotoxicity against HEK293T cells assessed as inhibition of cell growth incubated for 24 hrs by CCK-8 assay

As to `COC(=O)[C@H](CS[C@H](CC=C(C)C)C1=CC(=O)c2c(O)ccc(O)c2C1=O)NC(=O)CCCC[C@@H]1CCSC(c2cccc(Cl)c2Cl)S1` (some centres undefined), the concentration for half-maximal inhibition (IC50) amounted to 4.5 µM with NCI-H1299 [1], 16.1 µM in the series on A549, 1.7 µM in the series with NCI-H1975 and 16.6 µM in the series with HCC827. In the series “in vitro”, this compound showed a concentration for half-maximal inhibition (IC50) at 24 h of 98.2 µM.
Take `CN(C)C(=O)c1ccc(S(=O)(=O)c2ccc(NC(=O)[C@@](C)(O)C(F)(F)F)c(Cl)c2)cc1`: the Activity with NCI-H1299 [2] was found to be 12.1%; with NCI-H1299 [3], 20.6%; in the series on NCI-H1299 [5], 0.01%; with NCI-H1299 [7], 0%; in the series with NCI-H1299 [11] it was 59%; in the series on NCI-H1299 [12], 71.7%. Besides, the results for the Activity with NCI-H1299 [13] and in the series with NCI-H1299 [15] were 7.63% and 28.9%, respectively. Also, the inhibition result with NCI-H1299 [4], with NCI-H1299 [6] and in the series with NCI-H1299 [14] was “Active” in each case. For the same compound, the result in the series with NCI-H1299 [8], with NCI-H1299 [9] and with NCI-H1299 [10] was Active.
Consider `COC(=O)[C@H](CS[C@H](CC=C(C)C)C1=CC(=O)c2c(O)ccc(O)c2C1=O)NC(=O)CCCC[C@@H]1CCSC(c2ccc(OC)cc2)S1` (some centres undefined), for which the 50% inhibitory concentration (IC50) in the series with NCI-H1299 [1] was found to be 2.81 µM; with A549 it was 2.34 µM; in the series with NCI-H1975, 2.71 µM; in the series on HCC827 it was 6.44 µM. Moreover, 86.2 µM corresponded to half-maximal inhibition in the series “in vitro” (IC50 at 24 h).
As for `COC(=O)[C@H](CS[C@H](CC=C(C)C)C1=CC(=O)c2c(O)ccc(O)c2C1=O)NC(=O)CCCC[C@@H]1CCSC(c2ccc(Cl)cc2)S1` (some centres undefined), the IC50 was found to be 8.26 µM in the series on NCI-H1299 [1], 11.5 µM in the series with A549, 8.26 µM with NCI-H1975 and 10.9 µM in the series on HCC827. This compound also gave an IC50 at 24 h in the series “in vitro” of 86 µM.
Take `COC(=O)[C@H](CS[C@H](CC=C(C)C)C1=CC(=O)c2c(O)ccc(O)c2C1=O)NC(=O)CCCC[C@@H]1CCSC(c2ccc([N+](=O)[O-])cc2)S1` (some centres undefined): the IC50 with NCI-H1299 [1] is 5.34 µM; with A549, 21.8 µM; with NCI-H1975, 17 µM; with HCC827, 25.9 µM. Moreover, the 50% inhibitory concentration (IC50) at 24 h in “in vitro” came out at 94.2 µM.
In the case of `COC(=O)[C@H](CS[C@H](CC=C(C)C)C1=CC(=O)c2c(O)ccc(O)c2C1=O)NC(=O)CCCC[C@@H]1CCSC(c2ccc(OCc3ccccc3)cc2)S1` (some centres undefined), the half-maximal inhibitory concentration (IC50) with NCI-H1299 [1] is 24.8 µM; with A549, 13.3 µM; in the series on NCI-H1975 it was 15.7 µM; in the series on HCC827, 19.3 µM. In the series “in vitro”, this compound yielded an IC50 at 24 h of 88.7 µM.
On to `COC(=O)[C@H](CS[C@H](CC=C(C)C)C1=CC(=O)c2c(O)ccc(O)c2C1=O)NC(=O)CCCC[C@@H]1CCSC(c2ccc(Br)cc2)S1` (some centres undefined), for which the 50% inhibitory concentration (IC50) in the series with NCI-H1299 [1] turned out to be 3.27 µM; with A549 it was 18.1 µM; in the series on NCI-H1975, 4.68 µM; in the series on HCC827 it was 13.2 µM. Further, the half-maximal inhibitory concentration (IC50) at 24 h in the series “in vitro” amounted to 88.8 µM.
Regarding `COC(=O)[C@H](CS[C@H](CC=C(C)C)C1=CC(=O)c2c(O)ccc(O)c2C1=O)NC(=O)CCCC[C@@H]1CCSC(c2ccccc2Cl)S1` (some centres undefined), the IC50 was 6.73 µM in the series on NCI-H1299 [1], 9.56 µM with A549, 8.3 µM with NCI-H1975 and 8.31 µM in the series on HCC827. In addition, it took 84.5 µM to reach half-maximal inhibition in “in vitro” (IC50 at 24 h).
